Some test systems named below: A549; ACHN; CCRF-CEM; COLO 205; EKVX; HCC 2998; HOP-62; Hs-578T; IGROV-1; MCF7; NCI-H226; NCI-H460; PC-3; RPMI-8226; RXF 393; SF-539; SK-OV-3; SN12C; SW-620; T47D.
What all share (assay): NCI-60 cell line screen, 48 h

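Following 48 hours of exposure in 96-well plates, responses at five concentrations were used to interpolate endpoints linearly. Abbreviation: GI50, concentration required for 50% inhibition of growth.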 Active and inactive are the calls of the source. Rule as the data show it: active = GI50 up to about 1.1 µM and inactive = higher.

Take `CCCc1cn2c(/C=N/NC(=N)N)c(-c3ccc([N+](=O)[O-])cc3)nc2s1`: the GI50 in the test on A549 is 1.71 µM (inactive); in the test with ACHN it was 1.67 µM (inactive); in the test with CCRF-CEM, 0.277 µM (active); in the test with COLO 205 it was 0.891 µM (active); in the test on EKVX, 1.95 µM (inactive); with HCC 2998, 0.578 µM (active). Also, the GI50 in the test on HOP-62 was 1.77 µM (inactive); in the test with Hs-578T it was 2.33 µM (inactive); with IGROV-1, 1.77 µM (inactive); with MCF7, 1.75 µM (inactive); in the test on NCI-H226, 2 µM (inactive); with NCI-H460 it was 1.93 µM (inactive). Moreover, the GI50 in the test on PC-3 was 2.01 µM (inactive); in the test with RPMI-8226 it was 0.45 µM (active); with RXF 393, 1.73 µM (inactive); with SF-539 it was 4.88 µM (inactive); in the test with SK-OV-3, 1.79 µM (inactive); in the test with SN12C, 1.58 µM (inactive). For the same molecule, the GI50 with SW-620 is 0.342 µM (active); in the test with T47D, 1.67 µM (inactive).

Regarding `Cc1ccc(-c2cc(N)n(-c3nc4c(c(=O)n(C)c(=O)n4C)n3C)n2)cc1`, the GI50 in the test with A549 is > 100 µM (inactive); in the test with ACHN it was > 100 µM (inactive); in the test with CCRF-CEM, > 100 µM (inactive); with COLO 205, > 100 µM (inactive); in the test with EKVX it was 62.2 µM (inactive); in the test on HCC 2998, > 100 µM (inactive). The GI50 is 21.7 µM (inactive) with HOP-62; 60.1 µM (inactive) in the test with Hs-578T; > 100 µM (inactive) in the test on IGROV-1; > 100 µM (inactive) in the test with MCF7; 86.1 µM (inactive) in the test with NCI-H226; > 100 µM (inactive) with NCI-H460. The GI50 is > 100 µM (inactive) in the test on PC-3; > 100 µM (inactive) in the test with RPMI-8226; > 100 µM (inactive) in the test on RXF 393; 45.8 µM (inactive) in the test with SF-539; 41 µM (inactive) in the test on SK-OV-3; > 100 µM (inactive) with SN12C. Besides, the GI50 in the test on T47D is > 100 µM (inactive).

In the case of `Cc1cc(C)c2c(c1)CC1(Cc3cc(C)c(C)cc3C1=O)C2=O` (configuration not stated), the GI50 was 59.4 µM (inactive) with A549; > 100 µM (inactive) in the test with ACHN; > 100 µM (inactive) in the test on CCRF-CEM; > 100 µM (inactive) with COLO 205; > 100 µM (inactive) with EKVX; > 100 µM (inactive) with HCC 2998. Also, the GI50 with Hs-578T is 56.6 µM (inactive); with IGROV-1, 90.4 µM (inactive); with MCF7, > 100 µM (inactive); in the test on NCI-H226, > 100 µM (inactive); in the test on NCI-H460, > 100 µM (inactive); in the test on PC-3, > 100 µM (inactive). In addition, the GI50 in the test with RPMI-8226 is > 100 µM (inactive); with RXF 393, 44.9 µM (inactive); in the test with SF-539, 46.2 µM (inactive); in the test with SN12C, > 100 µM (inactive); in the test on SW-620 it was 95.7 µM (inactive); with T47D, > 100 µM (inactive).

`C=C1CC[C@H](O)C(C)(C)[C@@H]1CC/C(C)=C/CC/C=C(\C)CC/C=C(\C)CCC=C(C)C`: the GI50 in the test on A549 was > 100 µM (inactive); in the test on ACHN, > 100 µM (inactive); in the test with CCRF-CEM, 1.82 µM (inactive); with COLO 205 it was > 100 µM (inactive); in the test on EKVX, 97.9 µM (inactive); with HCC 2998, 76.6 µM (inactive). Besides, the GI50 in the test on HOP-62 was > 100 µM (inactive); with Hs-578T, > 100 µM (inactive); with IGROV-1 it was > 100 µM (inactive); in the test with MCF7 it was 27.6 µM (inactive); with NCI-H226, 69.2 µM (inactive); in the test on NCI-H460 it was > 100 µM (inactive). For the same molecule, the GI50 in the test on PC-3 is > 100 µM (inactive); in the test on RXF 393, 13.7 µM (inactive); in the test on SF-539, > 100 µM (inactive); with SK-OV-3 it was > 100 µM (inactive); in the test with SN12C, 66.2 µM (inactive); in the test on SW-620, > 100 µM (inactive). Moreover, the GI50 with T47D is 18.7 µM (inactive).

As to `O=C(CSCC(=O)N/N=C/c1cccc(O)c1)N/N=C/c1cccc(O)c1`, the GI50 in the test on A549, in the test with ACHN, in the test on COLO 205, in the test with EKVX, with HCC 2998 and in the test on HOP-62 was > 100 µM (inactive) throughout. Further, the GI50 is > 100 µM (inactive) with Hs-578T; > 100 µM (inactive) in the test with IGROV-1; > 100 µM (inactive) in the test on MCF7; 82.4 µM (inactive) with NCI-H226; > 100 µM (inactive) with NCI-H460; > 100 µM (inactive) in the test on PC-3. In addition, the GI50 in the test on RPMI-8226, in the test on RXF 393, in the test on SF-539, in the test on SK-OV-3, in the test with SN12C and in the test on SW-620 was > 100 µM (inactive) each time. Moreover, the GI50 in the test with T47D was > 100 µM (inactive).

On to `CNC(=O)c1cc2nc3ccccc3c(=O)n2c2ccccc12`, for which the GI50 in the test on A549, with ACHN, in the test on CCRF-CEM, in the test with COLO 205, in the test on EKVX and in the test on HCC 2998 was > 10 µM (inactive) each time. Also, the GI50 with HOP-62, in the test on Hs-578T, in the test on IGROV-1, in the test on MCF7, with NCI-H226 and in the test on PC-3 was > 10 µM (inactive) each time. Further, the GI50 with RPMI-8226, in the test with RXF 393, in the test with SF-539, with SK-OV-3, in the test on SN12C and with SW-620 was > 10 µM (inactive) each time. Besides, in the test with T47D, the GI50 was > 10 µM (inactive).

Consider `Cc1nc2cc(C(F)(F)F)ccc2[nH]c1=O`, for which the GI50 is > 100 µM (inactive) in the test on A549; > 100 µM (inactive) with ACHN; > 100 µM (inactive) with CCRF-CEM; > 100 µM (inactive) in the test on COLO 205; 7.08 µM (inactive) in the test with EKVX; > 100 µM (inactive) in the test on HCC 2998. Further, the GI50 in the test on HOP-62 is > 100 µM (inactive); in the test on Hs-578T, 21.9 µM (inactive); in the test with MCF7, > 100 µM (inactive); in the test with NCI-H226, > 100 µM (inactive); in the test on NCI-H460, > 100 µM (inactive); in the test on PC-3 it was > 100 µM (inactive). In addition, the GI50 with RPMI-8226, with RXF 393, in the test on SF-539, with SK-OV-3, with SN12C and in the test with SW-620 was > 100 µM (inactive) each time. The GI50 in the test on T47D is 45.5 µM (inactive).

Take `c1csc(-c2ccc(-c3ccc(-c4cccs4)s3)s2)c1`: the GI50 in the test on A549, in the test on ACHN, with COLO 205, in the test on EKVX, in the test on HCC 2998 and in the test on HOP-62 was > 100 µM (inactive) in each case. In addition, the GI50 in the test with Hs-578T, in the test with IGROV-1, with MCF7, in the test on NCI-H226, in the test on NCI-H460 and with PC-3 was > 100 µM (inactive) throughout. Moreover, the GI50 in the test on RPMI-8226, in the test with RXF 393, in the test on SF-539, with SK-OV-3, in the test with SN12C and with SW-620 was > 100 µM (inactive) each time. The GI50 in the test with T47D is > 100 µM (inactive).

For the molecule `C/C=C1/CN2CCc3c([nH]c4ccccc34)[C@@H]2C[C@@H]1Cc1nccc2c1[nH]c1cc(O)ccc12`, the GI50 with A549 is 2.23 µM (inactive); in the test on ACHN, 2.29 µM (inactive); with CCRF-CEM, 2.9 µM (inactive); in the test on COLO 205 it was 2.78 µM (inactive); with EKVX, 2.07 µM (inactive); in the test with HCC 2998 it was 1.42 µM (inactive). Moreover, the GI50 with HOP-62 was 1.98 µM (inactive); in the test with Hs-578T, 2.23 µM (inactive); in the test with MCF7, 2.62 µM (inactive); in the test on NCI-H226, 3.85 µM (inactive); in the test with NCI-H460, 16.5 µM (inactive); in the test with PC-3, 2.25 µM (inactive). Also, the GI50 with RXF 393 is 2.24 µM (inactive); in the test on SF-539, 2.02 µM (inactive); with SK-OV-3, 2.17 µM (inactive); in the test with SN12C it was 1.66 µM (inactive); in the test with SW-620 it was 2.82 µM (inactive); in the test on T47D, 2.14 µM (inactive).

In the case of `CN/C(=N\n1cnnc1)OC`, the GI50 in the test with A549, in the test on ACHN, in the test with CCRF-CEM, in the test on COLO 205, with EKVX and in the test on HCC 2998 was > 100 µM (inactive) in each case. In addition, the GI50 in the test with HOP-62, with Hs-578T, with IGROV-1, in the test on MCF7, with NCI-H460 and in the test on PC-3 was > 100 µM (inactive) throughout. Further, the GI50 with RPMI-8226, in the test on RXF 393, with SK-OV-3, with SW-620 and with T47D was > 100 µM (inactive) each time.
